Test results from publication PMC4291223, “Inhibitors of CLK Protein Kinases Suppress Cell Growth and Induce Apoptosis by Modulating Pre-mRNA Splicing” (PLoS ONE, 2015).

Experiments:
[1] = tested on: mRNA isoforms harboring PTCs in MDA-MB-468 cells; assay: Fluorescence pulse-chase RNA labeling assay; assay type: cell-based, human; settings: 50 μM Cpd-1 or 5 μM Cpd-2
Experimental: MDA-MB-468 cells (5 × 10^5) were seeded into 6-well plates and incubated overnight. The cells were treated with each compound for 6 h and incubated with culture medium containing 5-EU (Invitrogen) to label cellular RNA. After incubation for 1 h, the medium was replaced with EU-free fresh medium and the cells were cultured for a further 24 h to allow degradation of the labeled RNA (chase). Cells were harvested before and after the chase and EU-labeled RNA was isolated using a Click-iT Nascent RNA Capture Kit (Invitrogen) according to the manufacturer’s instructions. The isolated RNA was analyzed by quantitative RT-PCR to measure the amount of each mRNA splice isoform.

SRPK3 = molecular target: T1, SRPK3 (Homo sapiens, UniProt Q9UPE1); assay: In vitro kinase assay (ADP-Glo), SRPK3; assay type: biochemical; settings: 5 µM ATP
T1 construct: purchased Millipore
T1 sequence (Q9UPE1 whole entry): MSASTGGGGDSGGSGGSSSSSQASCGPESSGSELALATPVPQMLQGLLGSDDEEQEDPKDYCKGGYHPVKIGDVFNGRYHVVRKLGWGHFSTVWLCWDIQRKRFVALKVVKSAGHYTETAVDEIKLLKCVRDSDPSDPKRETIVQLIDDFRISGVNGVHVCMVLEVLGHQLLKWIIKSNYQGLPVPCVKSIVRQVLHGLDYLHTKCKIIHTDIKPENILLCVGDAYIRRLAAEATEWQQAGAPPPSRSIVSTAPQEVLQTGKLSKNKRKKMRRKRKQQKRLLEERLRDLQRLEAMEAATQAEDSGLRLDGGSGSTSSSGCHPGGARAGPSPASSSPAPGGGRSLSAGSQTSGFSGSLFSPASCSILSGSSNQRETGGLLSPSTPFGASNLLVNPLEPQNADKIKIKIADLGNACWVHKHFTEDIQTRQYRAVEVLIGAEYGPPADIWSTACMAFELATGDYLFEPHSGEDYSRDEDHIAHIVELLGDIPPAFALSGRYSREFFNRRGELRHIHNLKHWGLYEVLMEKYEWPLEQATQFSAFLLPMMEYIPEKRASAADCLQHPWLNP
Experimental: The ATP concentration for each assay was adjusted to the Km for each kinase. Kinase assays for SRPK1–3 and CLK1 were performed using the ADP-Glo™ assay (Promega, Madison, WI). The kinase buffer contained 25 mM HEPES (pH 7.5), 10 mM magnesium acetate, 1 mM DTT, 0.01% BSA, and 0.01% Tween-20. The reaction mixtures contained 50 ng/mL SRPK1, 100 ng/mL SRPK2 or SRPK3, or 300 ng/mL CLK1 and 3 μM substrate peptide [GRSRSRSRSRSRSRSR] (Thermo Scientific). After incubating the enzyme, peptide, and compounds for 10 min, kinase reactions were initiated by adding ATP to a final concentration of 5 µM, followed by incubation for 30 min (15 min for SRPK1). The kinase reactions were terminated by adding ADP-Glo™ reagent (Promega). ADP was detected using a kinase detection reagent (Promega). The kinase activity of CLK2 was measured using the LANCE® Ultra assay (Perkin-Elmer, Waltham, MA) with ADP-Glo assay buffer. […] The enzyme reactions were terminated by adding 30 mM EDTA, and phosphorylated ULight-MBP peptides were detected using a europium-labeled anti-phospho-MBP antibody diluted with detection buffer (Perkin-Elmer). The plates were read using an EnVision 2102 multilabel reader (Perkin-Elmer). We defined the absorbance of the reaction without enzyme as 100% inhibitory activity and that of the complete reaction mixture as 0% inhibitory activity. […]

PI3Kα = PI3Kα (Homo sapiens, UniProt P42336); assay: Kinase panel assay (Z'-LYTE, SelectScreen), PI3Kα; assay type: biochemical; settings: 1 μM compound, 100 μM ATP; among kinases inhibited by more than 50%
Sequence of PI3Kα (P42336 whole entry): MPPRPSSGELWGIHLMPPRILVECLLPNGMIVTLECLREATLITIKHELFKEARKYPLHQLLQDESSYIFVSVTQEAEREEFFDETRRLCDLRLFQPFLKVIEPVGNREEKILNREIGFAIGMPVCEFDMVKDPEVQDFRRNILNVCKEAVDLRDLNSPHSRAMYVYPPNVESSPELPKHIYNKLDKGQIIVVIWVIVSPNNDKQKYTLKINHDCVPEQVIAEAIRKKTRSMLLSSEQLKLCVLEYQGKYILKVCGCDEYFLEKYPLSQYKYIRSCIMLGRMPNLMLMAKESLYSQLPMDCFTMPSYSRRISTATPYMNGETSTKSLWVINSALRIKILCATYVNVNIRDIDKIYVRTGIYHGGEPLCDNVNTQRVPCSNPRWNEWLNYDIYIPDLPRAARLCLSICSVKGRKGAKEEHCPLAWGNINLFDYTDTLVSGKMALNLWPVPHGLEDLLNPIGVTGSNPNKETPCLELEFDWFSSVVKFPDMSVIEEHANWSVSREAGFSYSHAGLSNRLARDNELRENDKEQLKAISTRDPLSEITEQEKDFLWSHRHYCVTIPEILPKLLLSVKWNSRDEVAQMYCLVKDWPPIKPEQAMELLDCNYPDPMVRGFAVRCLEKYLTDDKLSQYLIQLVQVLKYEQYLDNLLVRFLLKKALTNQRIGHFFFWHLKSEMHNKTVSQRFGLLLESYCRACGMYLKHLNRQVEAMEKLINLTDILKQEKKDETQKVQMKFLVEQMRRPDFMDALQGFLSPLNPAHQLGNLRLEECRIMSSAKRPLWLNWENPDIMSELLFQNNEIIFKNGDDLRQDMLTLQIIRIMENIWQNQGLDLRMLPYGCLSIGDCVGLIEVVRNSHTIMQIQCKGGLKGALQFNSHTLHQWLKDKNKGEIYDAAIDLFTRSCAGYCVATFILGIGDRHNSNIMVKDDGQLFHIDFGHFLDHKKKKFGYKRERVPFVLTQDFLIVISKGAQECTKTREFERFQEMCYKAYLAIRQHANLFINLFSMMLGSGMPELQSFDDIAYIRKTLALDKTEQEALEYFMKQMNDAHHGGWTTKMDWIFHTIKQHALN
Sequence of PI3Kα (P27986 whole entry partner): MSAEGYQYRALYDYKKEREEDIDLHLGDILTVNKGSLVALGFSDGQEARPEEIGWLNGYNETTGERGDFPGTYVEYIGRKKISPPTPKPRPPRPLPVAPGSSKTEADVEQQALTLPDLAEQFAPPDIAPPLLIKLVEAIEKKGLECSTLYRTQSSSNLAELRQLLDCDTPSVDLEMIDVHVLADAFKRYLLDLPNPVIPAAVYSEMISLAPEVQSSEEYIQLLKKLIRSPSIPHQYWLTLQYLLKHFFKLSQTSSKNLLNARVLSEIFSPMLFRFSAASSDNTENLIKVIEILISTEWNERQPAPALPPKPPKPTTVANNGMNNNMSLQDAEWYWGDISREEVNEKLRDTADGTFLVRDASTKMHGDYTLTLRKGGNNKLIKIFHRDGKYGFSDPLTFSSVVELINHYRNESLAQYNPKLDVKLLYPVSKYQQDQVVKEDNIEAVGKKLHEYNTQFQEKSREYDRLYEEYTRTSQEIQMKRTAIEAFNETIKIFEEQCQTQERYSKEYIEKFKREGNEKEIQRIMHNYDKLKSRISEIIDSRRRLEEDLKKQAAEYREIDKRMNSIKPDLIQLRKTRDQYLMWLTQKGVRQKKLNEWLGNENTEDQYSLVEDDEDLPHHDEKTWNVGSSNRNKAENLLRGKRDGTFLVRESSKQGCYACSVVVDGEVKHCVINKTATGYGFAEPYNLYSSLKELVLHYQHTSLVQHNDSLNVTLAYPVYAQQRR
Experimental: Kinase panel assays were performed using the FRET-based Z’- LYTE enzymatic kinase assay system (Life Technologies, Carlsbad, CA), which was carried out using the SelectScreen Kinase Profiling Service (Life Technologies). The standard reaction contained 2 μM peptide substrate, 100 μM ATP, 50 mM HEPES (pH 7.5), 0.01% Brij-35, 10 mM MgCl2, 1 mM EGTA, and each kinase. Cpd-1, Cpd-2, and Cpd-3 at two point concentration (100 and 1000 nM) with duplicate data points (n = 2) were assayed following the detailed procedures outlined in the SelectScreen. The full assay protocol and conditions can be obtained at www.lifetechnologies.com. Percent inhibition represents a ratio of phosphorylated product formed in the presence of the compound compared with phosphorylated product formed in reactions containing 1% DMSO. Inhibition data indicates the mean value of kinase inhibition from duplicate data.

[2] = tested on: S6K, EIF3D, and EGFR in MDA-MB-468 cells; assay: Immunoblot of S6K, EIF3D and EGFR protein levels; assay type: cell-based, human; settings: MDA-MB-468, 24 h
Experimental: Cells were lysed in radioimmunoprecipitation assay buffer containing 50 mM Tris-HCl (pH 7.6), 150 mM NaCl, 1% Triton X-100, and protease inhibitor cocktail tablets (Roche). After removal of the insoluble matter by centrifugation at 15,000 rpm for 15 min, the protein concentrations of the supernatants were determined using a BCA Protein Assay Kit (Pierce Biotechnology, Rockford, IL). The lysates were directly combined with one-quarter volume of 5× sample buffer [25 mmol/L Tris-HCl pH 6.8, 10% glycerol, 0.8% SDS, and 0.004% bromophenol blue] and boiled at 100°C for 5 min. The samples were subjected to 5–20% gradient SDS-polyacrylamide gel electrophoresis, and the separated proteins were electrophoretically transferred to polyvinylidene difluoride membranes using an I-blot System (Invitrogen). The membranes were incubated with primary antibodies and visualized using enhanced chemiluminescence reagents (GE Healthcare). The primary antibodies were as follows: anti-phospho-SR (1H4), anti-SR (Invitrogen), anti-EGFR, anti-EIF3D, anti-GAPDH (Santa Cruz Biotechnology, Santa Cruz, CA), anti-S6K and anti-PARP (Cell Signaling Technology, Danvers, MA).

CC(C)(CCc1nnn[nH]1)c1ccc(C(=O)Nc2cn3cc(C(F)(F)F)ccc3n2)cc1 [Cpd-1, 4-(2-methyl-4-(1H-tetrazol-5-yl)butan-2-yl)-N-(6-(trifluoromethyl)imidazo[1,2-a]pyridin-2-yl)benzamide]
amounts of S6K mRNA isoforms harboring PTCs (exons 6–8, exons 6–10) versus canonical S6K exons 6–7 after 24 h chase [1]: significantly lower

CC(C)(C)c1ccc(C(=O)Nc2cn3cc(-c4cn[nH]c4)ccc3n2)cn1 [Cpd-2, 6-tert-butyl-N-(6-(1H-pyrazol-4-yl)imidazo[1,2-a]pyridin-2-yl)nicotinamide]
IC50 (SRPK3): 230 nM
amounts of S6K mRNA isoforms harboring PTCs (exons 6–8, exons 6–10) versus canonical S6K exons 6–7 after 24 h chase [1]: significantly lower
inhibition of PI3Kα in kinase panel (PI3Kα): moderately inhibited
protein levels of S6K, EIF3D, and EGFR [2]: reduced the protein levels of S6K, EIF3D, and EGFR in a concentration-dependent manner

CC(C)(CO)c1ccc(C(=O)Nc2cn3cc(-c4cn[nH]c4)ccc3n2)cc1 [Cpd-3, 4-(1-hydroxy-2-methylpropan-2-yl)-N-(6-(1H-pyrazol-4-yl)imidazo[1,2-a]pyridin-2-yl)benzamide]
IC50 (SRPK3): 260 nM
